Like-named read-outs stand apart in the source and are kept apart here.
What was measured:
[1] = Tests of equivalence of bioavailability: plasma pharmacokinetic parameters after subcutaneous injection; format: in vivo, bovines; details: both sexes, bovine (cattle), sc
Experimental: 24 young male and female bovines aged 11 months and with an average weight of 220 kg are treated individually with 1 subcutaneous injection of 40 mg/kg of florfenicol (Nuflor 450®—Merck, 450 mg of florfenicol/mL). Blood samples are taken regularly during the 7 days following this injection. This is followed by a wash-out period of 20 days. The animals then receive a subcutaneous injection of 0.5 mg/kg meloxicam (Metacam®, Boehringer Ingelheim, 5 mg of meloxicam/mL). Blood samples are taken regularly during the 7 days following this injection. This is followed by a new wash-out period of 20 days. […] Blood samples are taken regularly during the 7 days following this injection. The blood samples obtained during this treatment campaign make it possible to evaluate the pharmacokinetic parameters (Cmax and AUC0-t) and a pharmacological parameter (useful life of the antibiotic) by conventional methods known by a person skilled in the art.

Histophilus somni [2] = assay: Useful life of the antibiotic (time plasma concentration is above MIC90); format: in vivo; details: time plasma florfenicol is above MIC90 0.2 μg/mL for Histophilus somni; bovines, subcutaneous
Experimental: (§1) Blood samples are taken regularly during the 7 days following this injection. This is followed by a wash-out period of 20 days. The animals then receive a subcutaneous injection of 0.5 mg/kg meloxicam (Metacam®, Boehringer Ingelheim, 5 mg of meloxicam/mL). Blood samples are taken regularly during the 7 days following this injection. This is followed by a new wash-out period of 20 days. […] Blood samples are taken regularly during the 7 days following this injection. […] The useful life of an antibiotic is the time (in hours) during which the plasma concentration of a given antibiotic is above its MIC90 for the 3 representative microbes Mannheimia haemolytica, Histophilus somni, Pasteurella multocida.

Mannheimia haemolytica [3] = assay: as above; format: in vivo; details: time plasma florfenicol is above MIC90 1 μg/mL for Mannheimia haemolytica; bovines, subcutaneous
Experimental: as §1

Pasteurella multocida [4] = assay: as above; format: in vivo; details: time plasma florfenicol is above MIC90 0.5 μg/mL for Pasteurella multocida; bovines, subcutaneous
Experimental: as §1

Mannheimia haemolytica [5] = details: Mannheimia haemolytica reference strain; cited from earlier work
Histophilus somni [6] = details: Histophilus somni reference strain; cited from earlier work
Pasteurella multocida [7] = details: Pasteurella multocida reference strain; cited from earlier work

For `CS(=O)(=O)c1ccc([C@@H](O)[C@@H](CF)NC(=O)C(Cl)Cl)cc1` [Florfenicol, florfenicol], the AUC(0-t) ([1]; in vivo, 40 mg/kg) was 196 ± 45 µg·h/mL, the Cmax ([1]; in vivo, 40 mg/kg) was 3500 ± 1040 ng/mL and the Calculated antibiotic life (Histophilus somni [2]) was 167.78 ± 0.13 h. The Calculated antibiotic life (Mannheimia haemolytica [3]) was 66.44 ± 20.65 h, the Calculated antibiotic life (Pasteurella multocida [4]) was 132.03 ± 27.22 h and the “reference MIC90” value (Mannheimia haemolytica [5]) was 1 µg/mL. For the same molecule, the “reference MIC90” value (Histophilus somni [6]) was 0.2 µg/mL and the “reference MIC90” value (Pasteurella multocida [7]) was 0.5 µg/mL.

Molecule `Cc1cnc(NC(=O)C2=C(O)c3ccccc3S(=O)(=O)N2C)s1` [Meloxicam, meloxicam] has an AUC(0-t) ([1]; plasma, 0.5 mg/kg, read-out: AUC0-t of meloxicam in plasma) of 40.6 ± 7.12 µg·h/mL and a Cmax ([1]; plasma, 0.5 mg/kg, read-out: Cmax of meloxicam in plasma) of 2240 ± 357 ng/mL.

Reference: patent US20170304450A1, “PARENTERAL COMPOSITIONS AND USES THEREOF” (CEVA SANTE ANIMALE, priority 2014, published 2017)
